Experimental data published in patent US8017611B2, “Pyridine and pyrazine derivatives -083” (AstraZeneca AB, priority 2007, dated 2011).

The compounds below were run against T1, recombinant Axl tyrosine kinase (Homo sapiens, UniProt P30530) (assay: In vitro Axl kinase assay (AlphaScreen), Test (a)). Settings: Test (a); read-out: IC50 versus Axl tyrosine kinase.
T1 construct: encompassing amino acids 473 to 894 of Axl; GST (N); made in house; host or cells: SF126 insect cells
T1 sequence (P30530 473-894): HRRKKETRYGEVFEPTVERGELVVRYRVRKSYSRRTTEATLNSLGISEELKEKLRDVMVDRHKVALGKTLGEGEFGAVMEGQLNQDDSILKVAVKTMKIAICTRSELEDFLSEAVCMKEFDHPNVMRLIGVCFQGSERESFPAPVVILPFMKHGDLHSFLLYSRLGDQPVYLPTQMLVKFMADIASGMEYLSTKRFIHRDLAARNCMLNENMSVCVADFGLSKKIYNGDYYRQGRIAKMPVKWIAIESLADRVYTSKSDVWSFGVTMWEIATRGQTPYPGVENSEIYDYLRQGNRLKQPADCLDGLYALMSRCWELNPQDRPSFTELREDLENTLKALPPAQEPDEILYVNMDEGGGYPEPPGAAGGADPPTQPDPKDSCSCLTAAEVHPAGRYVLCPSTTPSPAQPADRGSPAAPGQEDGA
Assay type: biochemical

SMILES	IC50 [nM]
COCc1nn(C2CCNCC2)cc1-c1cnc(N)c(-c2nc3cccc(OC)c3o2)c1 [Example 62.14]	~0.1

Same assay, conditions: test compound at 1 μM; first value quoted

SMILES	% Axl tyrosine kinase inhibition at 1 μM concentration [%]
CN(C)C(=O)CN1CCC(n2cc(-c3cnc(N)c(-c4nc5ncccc5o4)c3)cn2)CC1 [Example 53.1]	99.7
CNC(=O)CN1CCC(n2cc(-c3cnc(N)c(-c4nc5ncccc5o4)c3)cn2)CC1 [Example 53.2]	97.8
NC(=O)CN1CCC(n2cc(-c3cnc(N)c(-c4nc5ncccc5o4)c3)cn2)CC1 [Example 53.3]	98.8
CC(C)N1CCC(n2cc(-c3cnc(N)c(-c4nc5ncccc5o4)c3)cn2)CC1 [Example 53.4]	99.2
Nc1ncc(-c2cnn(C3CCN(CCO)CC3)c2)cc1-c1nc2ncccc2o1 [Example 53.5]	100.0
NC(=O)CN1CCC(n2cc(-c3cnc(N)c(-c4nc5ccccc5o4)c3)cn2)CC1 [Example 53.6]	100.0
CN(C)C(=O)CN1CCC(n2cc(-c3cnc(N)c(-c4nc5ccccc5o4)c3)cn2)CC1 [Example 53.8]	99.9
CS(=O)(=O)N1CCC(n2cc(-c3cnc(N)c(-c4nc5ncccc5o4)c3)cn2)CC1 [Example 55.1]	99.0
Nc1ncc(-c2cnn(C3CCN(S(=O)(=O)C4CC4)CC3)c2)cc1-c1nc2ncccc2o1 [Example 55.2]	98.8
COC(=O)N1CCC(n2cc(-c3cnc(N)c(-c4nc5ncccc5o4)c3)cn2)CC1 [Example 55.3]	99.5
CC(=O)N1CCC(n2cc(-c3cnc(N)c(-c4nc5ncccc5o4)c3)cn2)CC1 [Example 57.1]	98.5
Nc1ncc(-c2cnn(C3CCN(C(=O)CO)CC3)c2)cc1-c1nc2ncccc2o1 [Example 57.2]	99.4
C[C@H](O)C(=O)N1CCC(n2cc(-c3cnc(N)c(-c4nc5ncccc5o4)c3)cn2)CC1 [Example 57.3]	98.7
CC(=O)N1CCC(n2cc(-c3cnc(N)c(-c4nc5cccnc5o4)c3)cn2)CC1 [Example 57.4]	99.3
COCC(=O)N1CCC(n2cc(-c3cnc(N)c(-c4nc5cccnc5o4)c3)cn2)CC1 [Example 57.5]	99.8
Nc1ncc(-c2cnn(C3CCN(C(=O)CO)CC3)c2)cc1-c1nc2cccnc2o1 [Example 57.6]	99.8
C[C@H](O)C(=O)N1CCC(n2cc(-c3cnc(N)c(-c4nc5cccnc5o4)c3)cn2)CC1 [Example 57.7]	99.6
COCCC(=O)N1CCC(n2cc(-c3cnc(N)c(-c4nc5ncccc5o4)c3)cn2)CC1 [Example 59.1]	99.3
CO[C@H](C)C(=O)N1CCC(n2cc(-c3cnc(N)c(-c4nc5ncccc5o4)c3)cn2)CC1 [Example 59.2]	98.1
CC(=O)NCC(=O)N1CCC(n2cc(-c3cnc(N)c(-c4nc5ncccc5o4)c3)cn2)CC1 [Example 59.3]	98.9

SMILES	% Axl tyrosine kinase inhibition at 1 μM concentration [%]
CC(=O)NCCC(=O)N1CCC(n2cc(-c3cnc(N)c(-c4nc5ncccc5o4)c3)cn2)CC1 [Example 59.4]	98.9
COCCOCC(=O)N1CCC(n2cc(-c3cnc(N)c(-c4nc5ncccc5o4)c3)cn2)CC1 [Example 59.5]	99.7
CN(C)CCC(=O)N1CCC(n2cc(-c3cnc(N)c(-c4nc5ncccc5o4)c3)cn2)CC1 [Example 59.6]	99.9
CN(C)CC(=O)N1CCC(n2cc(-c3cnc(N)c(-c4nc5cccnc5o4)c3)cn2)CC1 [Example 59.7]	99.6
COCCC(=O)N1CCC(n2cc(-c3cnc(N)c(-c4nc5cccnc5o4)c3)cn2)CC1 [Example 59.8]	98.2
CO[C@H](C)C(=O)N1CCC(n2cc(-c3cnc(N)c(-c4nc5cccnc5o4)c3)cn2)CC1 [Example 59.9]	99.1
CC(=O)NCCC(=O)N1CCC(n2cc(-c3cnc(N)c(-c4nc5cccnc5o4)c3)cn2)CC1 [Example 59.11]	99.0
CN(C)CCC(=O)N1CCC(n2cc(-c3cnc(N)c(-c4nc5cccnc5o4)c3)cn2)CC1 [Example 59.13]	99.7
N#Cc1nn(C2CCNCC2)cc1-c1cnc(N)c(-c2nc3ccccc3o2)c1 [Example 62.1]	100.0
CN(C)C(=O)c1nn(C2CCNCC2)cc1-c1cnc(N)c(-c2nc3ccccc3o2)c1 [Example 62.2]	98.8
CN(C)c1nn(C2CCNCC2)cc1-c1cnc(N)c(-c2nc3ccccc3o2)c1 [Example 62.3]	99.9
CNC(=O)c1nn(C2CCNCC2)cc1-c1cnc(N)c(-c2nc3ccccc3o2)c1 [Example 62.4]	99.8
NC(=O)c1nn(C2CCNCC2)cc1-c1cnc(N)c(-c2nc3ccccc3o2)c1 [Example 62.5]	99.5
Nc1ncc(-c2cn(C3CCNCC3)nc2CO)cc1-c1nc2c(F)cccc2o1 [Example 62.6]	100.0
COCc1nn(C2CCNCC2)cc1-c1cnc(N)c(-c2nc3c(F)cccc3o2)c1 [Example 62.7]	100.0
Cc1nn(C2CCNCC2)cc1-c1cnc(N)c(-c2nc3c(C#N)cccc3o2)c1 [Example 62.11]	99.8
COc1cccc2nc(-c3cc(-c4cn(C5CCNCC5)nc4CO)cnc3N)oc12 [Example 62.13]	100.0
COCc1nn(C2CCNCC2)cc1-c1cnc(N)c(-c2nc3cccc(OC)c3o2)c1 [Example 62.14]	100.0
COc1cccc2nc(-c3cc(-c4cn(C5CCNCC5)nc4C)cnc3N)oc12 [Example 62.15]	100.0

Same assay, conditions: test compound at 1 μM; first value quoted; read-out: % Axl tyrosine kinase inhibition at 1 μM concentration

SMILES	inhibition at 1 µM [%]
Nc1ncc(-c2cccc(N3CCOCC3)c2)nc1-c1nc2ccccc2s1 [Example 49, 3-(1,3-Benzothiazol-2-yl)-5-(3-morpholinophenyl)pyrazin-2-amine]	73.4
Nc1ncc(-c2cccc(CC(=O)O)c2)nc1-c1nc2ccc(F)cc2o1 [Example 50, 2-[3-[5-amino-6-(6-fluoro-1,3-benzoxazol-2-yl)pyrazin-2-yl]phenyl]acetic acid]	47.6
CNC(=O)[C@@H]1C[C@@H](n2cc(-c3cnc(N)c(-c4nc5ccccc5o4)c3)cn2)CN1 [Example 51, (2S,4R)-4-[4-[6-amino-5-(1,3-benzoxazol-2-yl)-3-pyridyl]pyrazol-1-yl]-N-methyl-pyrrolidine-2-carboxamide]	99.9
CCN1CCC(n2cc(-c3cnc(N)c(-c4nc5ncccc5o4)c3)cn2)CC1 [Example 52, 5-[1-(1-ethyl-4-piperidyl)pyrazol-4-yl]-3-oxazolo[4,5-b]pyridin-2-yl-pyridin-2-amine]	99.8
COCCOC(=O)N1CCC(n2cc(-c3cnc(N)c(-c4nc5ncccc5o4)c3)cn2)CC1 [Example 54, 2-methoxyethyl 4-[4-(6-amino-5-oxazolo[4,5-b]pyridin-2-yl-3-pyridyl)pyrazol-1-yl]piperidine-1-carboxylate]	99.5
COCC(=O)N1CCC(n2cc(-c3cnc(N)c(-c4nc5ncccc5o4)c3)cn2)CC1 [Example 56, 1-[4-[4-(6-amino-5-oxazolo[4,5-b]pyridin-2-yl-3-pyridyl)pyrazol-1-yl]-1-piperidyl]-2-methoxy-ethanone]	99.3
CN(C)CC(=O)N1CCC(n2cc(-c3cnc(N)c(-c4nc5ncccc5o4)c3)cn2)CC1 [Example 58, 1-[4-[4-(6-amino-5-oxazolo[4,5-b]pyridin-2-yl-3-pyridyl)pyrazol-1-yl]-1-piperidyl]-2-dimethylamino-ethanone]	99.5
CC(O)c1nn(C2CCNCC2)cc1-c1cnc(N)c(-c2nc3ccccc3o2)c1 (centres unmarked) [Example 60, 1-[4-[6-amino-5-(1,3-benzoxazol-2-yl)-3-pyridyl]-1-(4-piperidyl)pyrazol-3-yl]ethanol]	99.8
Nc1ncc(-c2cnn(C3CCNCC3)c2CO)cc1-c1nc2ccccc2o1 [Example 61, [4-[6-amino-5-(1,3-benzoxazol-2-yl)-3-pyridyl]-2-(4-piperidyl)pyrazol-3-yl]methanol]	99.9
CNCc1nn(C2CCN(C(C)=O)CC2)cc1-c1cnc(N)c(-c2nc3ccccc3o2)c1 [Example 63, 1-[4-[4-[6-amino-5-(1,3-benzoxazol-2-yl)-3-pyridyl]-3-(methylaminomethyl)pyrazol-1-yl]-1-piperidyl]ethanone]	98.4
